For assay [1], the system named is JY cells. Briefly: Membrane dipole potential, di-8-ANEPPS excitation ratio, spectrofluorometry. The format is cell-based, human. The settings on record: agent 20-200 μM, 10 min, room temperature, 0.05% Pluronic F-127, measured at 37°C, mean of 5 experiments. On the procedure:
(§1) The human acute monocytic leukemia-derived cell line THP-1 and the human Epstein-Barr virus (EBV) transformed lymphoblastoid cell line JY were obtained from the American Type Culture Collection (Manassas, VA, United States) and cultivated according to their specifications. […] As controls, cells were treated with the corresponding amounts of native MβCD complexes not containing sterols. To study the effects of fatty acids, cells were incubated for 48 h in medium supplemented with saturated stearic acid (SA, Sigma Aldrich), ω-3 polyunsaturated α-linolenic acid (ALA, Sigma Aldrich) or ω-6 polyunsaturated γ-linolenic acid (GLA, Sigma Aldrich) at various concentrations ranging from 12.5 to 50 μM. […] After washing, cells were kept on ice and samples were subsequently warmed to 37°C right before measurements carried out with a Fluorolog-3 spectrofluorometer (Horiba Jobin Yvon, Edison, NJ, United States). During measurements, the cuvette holder was kept at 37°C using a circulating water bath. Excitation spectra were recorded between 380 and 550 nm with the detected emission wavelength set to 660 nm in order to minimize effects of possible changes in membrane fluidity ([Clarke and Kane, 1997]). The ratio of fluorescence intensities integrated between excitation wavelengths 410–440 nm and 490–520 nm was calculated for each sample, which positively correlates with the magnitude of DP ([Clarke and Kane, 1997]; [Kovacs et al., 2017]; [Batta et al., 2020]).

Assay [2] concerns THP-1 cells. The description is as above. It is filed as cell-based, human. Particulars: agent 20-200 μM, 10 min, room temperature, 0.05% Pluronic F-127, measured at 37°C, mean of 5 experiments. The protocol: as §1
For assay [3], the system named is JY cells. In words: Membrane dipole potential, F66 emission ratio, flow cytometry. The format is cell-based, human. The settings on record: agent 20-200 μM, 10 min, 0.05% Pluronic F-127, at least 20,000 living cells per sample, n = 5. On the procedure:
(§2) The human acute monocytic leukemia-derived cell line THP-1 and the human Epstein-Barr virus (EBV) transformed lymphoblastoid cell line JY were obtained from the American Type Culture Collection (Manassas, VA, United States) and cultivated according to their specifications. […] As controls, cells were treated with the corresponding amounts of native MβCD complexes not containing sterols. To study the effects of fatty acids, cells were incubated for 48 h in medium supplemented with saturated stearic acid (SA, Sigma Aldrich), ω-3 polyunsaturated α-linolenic acid (ALA, Sigma Aldrich) or ω-6 polyunsaturated γ-linolenic acid (GLA, Sigma Aldrich) at various concentrations ranging from 12.5 to 50 μM. […] After washing, the fluorescence intensities of cells were determined with a FACS Aria III flow cytometer (Becton Dickinson, Mountain View, CA, United States) at 37°C. […] Data analysis was carried out in FCS Express (De Novo Software, Los Angeles, CA, United States). The ratio of emitted intensities in the two wavelength ranges (N^∗/T^∗) was determined for each cell and the average value was calculated for each sample from the data of living cells gated on FSC-SSC dot plots. The value of N^∗/T^∗ ratio negatively correlates with the magnitude of DP ([Kovacs et al., 2017]).
(In flow cytometry, cells or beads pass a laser one at a time.)

Assay [4] deals with THP-1 cells. Described as above. It is filed as cell-based, human. The settings on record: agent 20-200 μM, 10 min, 0.05% Pluronic F-127, at least 20,000 living cells per sample, n = 5. On the procedure: as §2
Details of assay [5]: method as in Batta et al., 2020. The settings on record: lowering DP with the agent; ref Batta et al., 2020; cited from earlier work. From the text:
One of the most widely studied cellular functions influenced by the magnitude of DP is the cellular binding and uptake of certain substances including drugs ([Asawakarn et al., 2001]), β-amyloid ([Hertel et al., 1997]) and other peptides ([Cladera and O’Shea, 1998]; [Zhan and Lazaridis, 2012]). […] Although cell-penetrating peptides are promising therapeutic tools for de ...

The structures appear in SMILES notation.

Regarding `O=C(CCc1ccc(O)cc1)c1c(O)cc(O)cc1O` [phloretin, 3-(4-hydroxyphenyl)-1-(2,4,6-trihydroxyphenyl) propan-1-one], the “Rexc, di-8-ANEPPS (excitation ratio 410-440 nm / 490-520 nm, positively correlates with DP)” value in the assay with JY cells [1] and with THP-1 cells [2] was “dose-dependently decreased” in each case. Moreover, the “Rem, F66 (emission ratio N*/T*, 470-490 nm / 564-606 nm, negatively correlates with DP)” value in the assay with JY cells [3] is listed as “increased Rem, F66 values implying lower magnitudes of DP, this change did not reach the level of significance in one of the cell lines”; in the assay on THP-1 cells [4] it was “increased Rem, F66 values implying lower magnitudes of DP, this change did not reach the level of significance in one of the cell lines”. Also, the “cellular uptake and endo-lysosomal escape of penetratin” value in assay [5] is listed as “increased”.

The values above are taken from article PMC8074792, “An ω-3, but Not an ω-6 Polyunsaturated Fatty Acid Decreases Membrane Dipole Potential and Stimulates Endo-Lysosomal Escape of Penetratin” (Frontiers in Cell and Developmental Biology, 2021).
